Test results taken from article PMC10160475, “Biological evaluation and in silico studies of novel compounds as potent TAAR1 agonists that could be used in schizophrenia treatment” (Frontiers in Pharmacology, 2023).
Read-outs that look alike come from different tables or passages of the source.

Key:
[1] = molecular target: T1, D2S receptors (Homo sapiens, UniProt P14416); test: cAMP assay, inhibition at human dopamine D2S receptors; type: cell-based
T1 construct: expressed in transfected cells; host or cells: Flp-In-CHO cells
Method: With regard to D2L and D2S, recombinant Flp-In™-CHO cells expressing human dopamine D2L receptors or D2S receptors were cultured with Ham’s F-12K (Kaighn’s) medium supplemented with 10% FBS, penicillin (100 U/ml), streptomycin (100 μg/ml), and hygromycin B (600 μg/ml) at 37°C in an atmosphere of 5% CO2. The methods of cell inoculation and compound treatment were the same as those for TAAR1, and haloperidol was used as the MAX control. Percentage inhibition was calculated using the following equation: Inhibition %=mean RLUtest sample−mean RLUvehicle control/mean RLUMAX control−mean RLUvehicle control×100%.

[2] = molecular target: T2, human TAAR1 (Homo sapiens, UniProt Q96RJ0); test: cAMP assay, functional agonist activity at human TAAR1; type: cell-based
T2 construct: expressed in transfected cells; host or cells: cAMP Hunter CHO-K1 AGTRL1 Gi cells
T2 sequence (Q96RJ0 1-339): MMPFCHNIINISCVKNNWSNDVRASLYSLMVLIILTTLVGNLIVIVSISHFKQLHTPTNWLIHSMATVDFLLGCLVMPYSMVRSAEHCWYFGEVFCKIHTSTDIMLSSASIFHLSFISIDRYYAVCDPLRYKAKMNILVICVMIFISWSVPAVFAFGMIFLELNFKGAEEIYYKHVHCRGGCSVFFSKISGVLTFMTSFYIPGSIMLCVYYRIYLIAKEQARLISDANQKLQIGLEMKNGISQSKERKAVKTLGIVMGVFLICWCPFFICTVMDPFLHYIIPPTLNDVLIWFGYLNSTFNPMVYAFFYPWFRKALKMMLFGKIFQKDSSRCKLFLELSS
Method: Cells were seeded in a total volume of 20 µL into white-walled, 384-well microplates, followed by incubation at 37°C for the appropriate time before testing. Different concentrations of compounds were added to cells, and incubation was undertaken at 37°C for 10 min, with p-tyramine used as the MAX control. cAMP modulation was determined using the DiscoverX HitHunter cAMP XS + assay. Percentage activity was calculated using the following equation: Activity %=mean RLUtest sample – mean RLUvehicle control/mean RLUMAX control – mean RLUvehicle control×100%.

[3] = molecular target: T3, human 5-HT1A (Homo sapiens, UniProt P08908); test: Calcium (FLIPR) assay, agonist activity at human 5-HT1A; type: cell-based
T3 construct: expressed in transfected cells; host or cells: Gα15-CHO-Clone cells
T3 sequence (P08908 1-422): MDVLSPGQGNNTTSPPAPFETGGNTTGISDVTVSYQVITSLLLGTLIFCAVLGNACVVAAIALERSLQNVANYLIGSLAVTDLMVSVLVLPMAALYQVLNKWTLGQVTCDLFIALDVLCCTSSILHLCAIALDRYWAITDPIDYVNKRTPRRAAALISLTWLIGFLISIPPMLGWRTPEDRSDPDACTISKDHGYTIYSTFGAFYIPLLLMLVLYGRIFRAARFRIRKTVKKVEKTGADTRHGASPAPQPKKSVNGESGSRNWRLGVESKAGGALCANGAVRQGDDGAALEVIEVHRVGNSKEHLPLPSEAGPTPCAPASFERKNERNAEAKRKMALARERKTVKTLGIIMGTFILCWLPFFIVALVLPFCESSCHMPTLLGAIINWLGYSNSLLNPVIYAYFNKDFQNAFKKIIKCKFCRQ
Method: With respect to 5-HT1A, recombinant Gα15-CHO-Clone cells expressing human 5-HT1A were used in this test. Cells were cultured with MEM supplemented with 10% FBS, penicillin (100 U/ml), streptomycin (100 μg/ml), and hygromycin B (600 μg/ml) and were seeded in 384-well microplates. Cells were stimulated with different concentrations of compounds for 2 h at 37°C, and the agonistic effect was determined using the FLIPR Calcium Assay Kit. Serotonin was used as the MAX control. Percentage activity was calculated using the following equation: Activity %=mean RLUtest sample−mean RLUvehicle control/mean RLUMAX control−mean RLUvehicle control×100%.

[4] = Pharmacokinetics study in rats; type: in vivo, Sprague–Dawley rats
Method: Compound 50B was dissolved in physiologic (0.9%) saline. Male and female rats were fasted overnight before dosing to avoid the possible effects of food. Compound 50B was administered via intragastric (5 mg/kg) and intravenous (2 mg/kg) routes to female and male rats. Approximately 200 μL of whole blood was collected into heparin-coated tubes at 0.083, 0.25, 0.5, 1, 2, 3, 4, 6, 8, 12, and 24 h after dosing. Plasma was collected immediately by centrifugation (8,000 g, 5 min, room temperature). Blood was placed in a heparinized Eppendorf™ tube. Plasma was centrifuged, and the concentration of compounds in the sample was determined by LC-MS/MS after pre-treatment. Drug-concentration data were processed in a […] using WinNonlin™ 6.3 (Pharsight, Mountain View, CA, United States).

[5] = system: MK801-induced schizophrenia-like behavior; test: MK801-induced schizophrenia-like behavior (open field, distance traveled); type: in vivo, C57BI/6J mice
Method: Ninety-nine male C57BI/6J mice were divided randomly into 11 groups. Mice were placed in a room 1 h before testing. They were administered (p.o.) vehicle (0.1 ml/10 g), 50A (0.3, 1, 3, and 10 mg/kg; 0.1 ml/10 g), or 50B (0.3, 1, 3, and 10 mg/kg; 0.1 ml/10 g). […] Then, mice were administered (i.p.) MK801 (0.8 mg/kg dissolved in physiologic saline; 0.1 ml/10 g). After 30 min, the distance that mice traveled was measured.
Forty-six male C57BI/6J mice were divided randomly into four groups. The CN group contained four mice. […] The administration method described previously was employed.

[6] = system: catalepsy; test: Catalepsy assay (bar test); type: in vivo, C57BI/6J mice; details: 100 mg/kg p.o., 30 and 90 min after administration
Method: Twenty-four male C57BI/6J mice were divided randomly into four groups. Mice were placed in a room 1 h before testing. […] The front paws of mice were placed on a horizontal metal bar raised 2 inches above a Plexiglas™ platform 30 min and 90 min after administration. The time the front paws of mice were placed on the platform was recorded at ≤30 s per trial. Each test was repeated three times.

[7] = Sprague-Dawley, rat, plasma, iv, male rats, 2 mg/kg
[8] = Sprague-Dawley, rat, plasma, po, male rats, 5 mg/kg, i.g.
[9] = male, Sprague-Dawley, rat, plasma, po, 5 mg/kg, i.g.

T1 sequence (P14416 1-414 isoform P14416-2): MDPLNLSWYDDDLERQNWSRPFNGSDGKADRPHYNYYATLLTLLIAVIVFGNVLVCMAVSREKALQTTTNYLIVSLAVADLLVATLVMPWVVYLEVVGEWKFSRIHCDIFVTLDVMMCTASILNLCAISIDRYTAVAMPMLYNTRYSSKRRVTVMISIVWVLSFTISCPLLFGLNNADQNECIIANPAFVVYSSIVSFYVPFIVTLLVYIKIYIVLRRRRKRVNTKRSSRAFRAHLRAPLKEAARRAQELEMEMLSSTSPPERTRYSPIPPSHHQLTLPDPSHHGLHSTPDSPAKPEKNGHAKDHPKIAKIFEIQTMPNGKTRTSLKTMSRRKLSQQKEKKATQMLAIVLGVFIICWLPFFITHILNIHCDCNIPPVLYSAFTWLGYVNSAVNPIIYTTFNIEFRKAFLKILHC

## c1csc([C@@H]2CNCCO2)c1 [Compound 50B]
[1]
  IC50: > 100 µM
[1]; haloperidol as MAX control, up to 100 μM, read-out: dopamine D2S antagonist Emax
  Emax: 24.9%
[2]
  EC50: 0.405 µM
[2]; read-out: TAAR1 Agonist % Emax
  Emax: 80.1%
[3]
  EC50: 99.8 µM
[3]; serotonin as MAX control, up to 100 μM, read-out: 5-HT1A agonism Emax
  Emax: 50.3%
[4]; [7]
  Cmax: 6.8 µM
  MRT last: 1.46 ± 0.231 h
[4]; [8]
  Cmax: 4.38 µM
  MRT last: 3.03 ± 0.625 h
[4]; Sprague-Dawley, rat, plasma, po, male rats, 5 mg/kg, i.g., read-out: CL/F (converted)
  CL/F: 26 mL/min/kg
[4]; Sprague-Dawley, rat, plasma, po, male rats, 5 mg/kg, i.g., read-out: Vz/F
  Vd/F: 2.86 ± 0.104 L/kg
[4]; male rats, 2 mg/kg, i.v.
  CL/F: 22.2 ± 3.52 mL/min/kg
  Vz/F: 2.48 ± 0.485 L/kg
[4]; male rats, 5 mg/kg, i.g.
  AUC(0-t): 18,929 ± 1774 h* nM
  T1/2: 1.28 ± 0.140 h
[4]; male, Sprague-Dawley, rat, plasma, iv, 2 mg/kg
  half-life: 1.31 ± 0.313 h
[4]; male, Sprague-Dawley, rat, plasma, iv, 2 mg/kg, i.v., read-out: AUC0-t
  AUC(0-t): 8.98 µM·h
[4]; male, Sprague-Dawley, rat, plasma, oral, 5 mg/kg, i.g. vs 2 mg/kg i.v., read-out: F (oral bioavailability)
  bioavailability: ~84.3%
[4]; [9]
  Tmax: ~0.833 h
  half-life: ~1.28 h
[4]; male, Sprague-Dawley, rat, plasma, po, 5 mg/kg, i.g., read-out: AUC0-t
  AUC(0-t): ~18.9 µM·h
[5]; mice, 10 mg/kg p.o., MK801 0.8 mg/kg i.p.
  MK801-induced increase in distance traveled: significantly reduced
[5]; mice, single oral dose 0.3, 1, 3 and 10 mg/kg, MK801 0.8 mg/kg i.p.
  Inhibition of MK801-induced schizophrenia-like behavior (effective doses): markedly at 1, 3, and 10 mg/kg
[5]; single oral dose 0.3, 1, 3 and 10 mg/kg
  Distance moved by mice in the presence or absence of MK801: significantly reduced the distance moved by mice
[6]
  Time mice spent holding bars (catalepsy): did not increase this time
